Literature values in patent EP2166560A1, “Maldi matrices” (Max-Planck-Gesellschaft zur Förderung der Wissenschaften …, priority 2008, dated 2010).

Details: representative medium strong acid

pK: 10.15
Compound: CCCCCCCCCCCCCCCCCC(=O)O [stearic acid]
